pIC50: −log10 of the molar value.

This note sets out measurements from patent publication US20210253572A1, “IMIDAZO[1,2-B]PYRIDAZINES AS TRK INHIBITORS” (BenevolentAl Bio Limited, priority 2018, published 2021).

Holding throughout (type): biochemical
The target of one assay is T1, TrkB (Homo sapiens, UniProt Q16620).
T1 construct: purchased Invitrogen
Briefly: HTRF KinEASE kinase assay, recombinant Human TRK enzyme, TrkB (NTRK2). The conditions noted are these: NTRK2 1 nM, read-out: TrkB Enz. On the procedure:
(§1) A suitable assay for determining the Trk inhibition activity of a compound is detailed herein below.
(§2) To determine the IC50 of small molecule compounds for the Human TRK receptors, HTRF® KinEASE™ kinase kits from Cisbio were used. Assays were carried out in low volume, black 384-well plates.
(§3) Recombinant Human TRK enzymes (Invitrogen) were incubated in the presence or absence of the compound (11-point dose response with FAC as 10 μM) for 30 minutes at 23° C. Kinase reaction was started by addition of ATP to a mixture containing the enzyme (NTRK1-4 nM, NTRK2-1 nM, NTRK3-10 nM) and substrate (1 μM). Kinase reaction was allowed to carry on for 10 to 45 minutes at 23° C. after which it was stopped by addition of the detection mix (supplied by vendor) containing EDTA, TK-Ab-labelled with Eu^3+-cryptate (1:200 dilutions) and Streptavidin-XL665 (250 nM). Assay plates were incubated in this detection mix for 60 minutes at 23° C. The resulting TR-FRET signal, calculated as the fluorescence ratio at 665/620 nm, was read on an Envision and was proportional to the level of phosphorylation of the peptide in the presence or absence of the compound. The uniformity of the plates were assured with Z′ value [1−{3*(SDHPE+SDZPE)/(ZPE−HPE)}]. The percent (%) effect i.e. Inhibition of compound was calculated in comparison to the signal in the positive (HPE) and negative control (ZPE) wells within each assay plate. The endpoint value % Inhibition for the Standard compound was evaluated in each experiment as a quality control measure. IC50 was determined by plotting compound inhibition at respective dose in Graphpad prism5 using four parameter logistic curve fit.
On the technique in general: In TR-FRET formats the signal depends on donor and acceptor labels being close together.

The target of another assay is T2, TrkC (Homo sapiens, UniProt Q16288).
T2 construct: purchased Invitrogen
Briefly: HTRF KinEASE kinase assay, recombinant Human TRK enzyme, TrkC (NTRK3). The conditions noted are these: NTRK3 10 nM, read-out: TrkC Enz. The method, then:
as §1, §2, §3

For another assay, the target named is T3, TrkA (Homo sapiens, UniProt P04629).
T3 construct: purchased Invitrogen
Briefly: HTRF KinEASE kinase assay, recombinant Human TRK enzyme, TrkA (NTRK1). The conditions noted are these: NTRK1 4 nM, read-out: TrkA Enz. On the procedure:
as §1, §2, §3

T2 sequence (Q16288 32-839): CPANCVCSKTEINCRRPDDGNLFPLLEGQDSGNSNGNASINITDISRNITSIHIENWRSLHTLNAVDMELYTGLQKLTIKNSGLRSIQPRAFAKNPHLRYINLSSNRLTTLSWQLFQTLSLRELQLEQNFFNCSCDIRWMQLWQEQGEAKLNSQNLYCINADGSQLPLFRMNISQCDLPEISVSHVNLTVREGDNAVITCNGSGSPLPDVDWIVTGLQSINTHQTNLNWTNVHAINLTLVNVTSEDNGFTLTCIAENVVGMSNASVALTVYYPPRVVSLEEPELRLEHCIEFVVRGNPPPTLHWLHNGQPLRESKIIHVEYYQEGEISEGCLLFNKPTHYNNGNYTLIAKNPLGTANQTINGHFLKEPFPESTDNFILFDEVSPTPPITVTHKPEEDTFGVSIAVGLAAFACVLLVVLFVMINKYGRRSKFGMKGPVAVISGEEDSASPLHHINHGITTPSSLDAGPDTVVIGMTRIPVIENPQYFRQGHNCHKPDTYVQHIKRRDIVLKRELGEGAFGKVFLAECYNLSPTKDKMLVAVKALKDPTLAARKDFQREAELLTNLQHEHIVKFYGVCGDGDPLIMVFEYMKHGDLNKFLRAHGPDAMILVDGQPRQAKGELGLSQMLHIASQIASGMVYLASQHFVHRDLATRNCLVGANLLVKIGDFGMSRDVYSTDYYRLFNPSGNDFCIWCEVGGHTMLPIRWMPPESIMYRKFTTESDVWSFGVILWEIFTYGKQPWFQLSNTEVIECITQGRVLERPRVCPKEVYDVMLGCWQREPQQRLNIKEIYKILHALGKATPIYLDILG
T3 sequence (P04629 33-796): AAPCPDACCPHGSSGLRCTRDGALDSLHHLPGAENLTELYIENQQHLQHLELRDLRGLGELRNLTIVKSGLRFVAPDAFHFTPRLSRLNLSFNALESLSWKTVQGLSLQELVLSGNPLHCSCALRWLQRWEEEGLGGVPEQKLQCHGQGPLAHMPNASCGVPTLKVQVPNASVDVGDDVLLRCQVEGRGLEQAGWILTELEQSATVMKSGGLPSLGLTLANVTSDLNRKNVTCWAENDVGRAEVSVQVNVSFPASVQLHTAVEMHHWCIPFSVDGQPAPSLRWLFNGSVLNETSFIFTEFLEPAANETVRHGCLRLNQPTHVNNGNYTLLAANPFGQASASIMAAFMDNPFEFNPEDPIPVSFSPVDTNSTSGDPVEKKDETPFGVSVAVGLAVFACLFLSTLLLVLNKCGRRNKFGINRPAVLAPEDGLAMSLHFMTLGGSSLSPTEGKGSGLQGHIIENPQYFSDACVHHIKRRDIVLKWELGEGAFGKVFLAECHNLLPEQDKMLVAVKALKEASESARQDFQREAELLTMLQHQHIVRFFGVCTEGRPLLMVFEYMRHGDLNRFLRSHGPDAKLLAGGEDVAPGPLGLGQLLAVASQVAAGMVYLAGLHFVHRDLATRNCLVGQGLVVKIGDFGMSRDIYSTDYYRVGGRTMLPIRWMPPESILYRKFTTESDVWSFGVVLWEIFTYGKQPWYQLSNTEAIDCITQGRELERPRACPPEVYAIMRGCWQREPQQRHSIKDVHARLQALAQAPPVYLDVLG
T1 sequence (Q16620 32-822): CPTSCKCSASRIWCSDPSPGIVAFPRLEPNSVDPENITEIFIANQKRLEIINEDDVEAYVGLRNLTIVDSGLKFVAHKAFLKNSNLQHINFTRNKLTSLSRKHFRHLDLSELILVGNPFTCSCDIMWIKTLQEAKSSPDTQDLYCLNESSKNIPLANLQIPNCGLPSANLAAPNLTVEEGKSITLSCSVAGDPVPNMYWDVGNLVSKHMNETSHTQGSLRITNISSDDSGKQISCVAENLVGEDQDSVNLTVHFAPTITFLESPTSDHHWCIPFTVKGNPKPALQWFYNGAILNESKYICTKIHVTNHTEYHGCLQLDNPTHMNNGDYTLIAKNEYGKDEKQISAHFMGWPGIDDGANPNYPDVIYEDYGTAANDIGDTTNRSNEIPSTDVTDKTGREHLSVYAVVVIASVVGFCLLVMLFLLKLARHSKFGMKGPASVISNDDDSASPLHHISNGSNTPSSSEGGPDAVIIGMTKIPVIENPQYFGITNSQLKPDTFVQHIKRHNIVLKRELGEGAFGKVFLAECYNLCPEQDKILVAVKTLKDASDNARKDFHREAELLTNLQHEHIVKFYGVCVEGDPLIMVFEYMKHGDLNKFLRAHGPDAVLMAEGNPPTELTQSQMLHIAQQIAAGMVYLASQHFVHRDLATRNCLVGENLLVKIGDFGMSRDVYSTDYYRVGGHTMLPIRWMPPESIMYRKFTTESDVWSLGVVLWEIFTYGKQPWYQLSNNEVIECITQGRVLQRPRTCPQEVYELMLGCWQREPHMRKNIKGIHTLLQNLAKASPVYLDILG

In the case of `CSc1ccc(F)cc1[C@H]1C[C@H](F)CN1c1ccc2ncc(C(=O)N[C@H]3CCN(Cc4cccc(O)c4)C3)n2n1` [Example 8, 6-[(2R,4S)-4-fluoro-2-[5-fluoro-2-(methylsulfanyl)phenyl]pyrrolidin-1-yl]-N-[(3S)-1-[(3-hydroxyphenyl)methyl]pyrrolidin-3-yl]imidazo[1,2-b]pyridazine-3-carboxamide], the pIC50 was 8.82 at TrkB, 8.79 at TrkC and 9.10 at TrkA.

In the case of `CSc1cc(F)cc([C@H]2C[C@H](F)CN2c2ccc3ncc(C(=O)NCc4ccc(F)c(O)c4)n3n2)c1` [Example 26, 6-[(2R,4S)-4-fluoro-2-[3-fluoro-5-(methylsulfanyl)phenyl]pyrrolidin-1-yl]-N-[(4-fluoro-3-hydroxyphenyl)methyl]imidazo[1,2-b]pyridazine-3-carboxamide], the pIC50 at TrkB is 8.73; on TrkC it was 8.53; at TrkA it was 8.73.

Take `CSc1ccc(F)cc1[C@H]1C[C@H](F)CN1c1ccc2ncc(C(=O)NCc3cccc(O)c3)n2n1` [Example 7, 6-[(2R,4S)-4-fluoro-2-[5-fluoro-2-(methylsulfanyl)phenyl]pyrrolidin-1-yl]-N-[(3-hydroxyphenyl)methyl]imidazo[1,2-b]pyridazine-3-carboxamide]: the pIC50 was 9.31 on TrkB, 8.90 on TrkC and 9.05 at TrkA.

Take `CSc1cc(F)cc([C@H]2CCCN2c2ccc3ncc(C(=O)N[C@H]4CCN(Cc5ccc(F)c(O)c5)C4)n3n2)c1` [Example 15, N-[(3S)-1-[(4-fluoro-3-hydroxyphenyl)methyl]pyrrolidin-3-yl]-6-[(2R)-2-[3-fluoro-5-(methylsulfanyl)phenyl]pyrrolidin-1-yl]imidazo[1,2-b]pyridazine-3-carboxamide]: the pIC50 on TrkB is 8.04; on TrkC, 8.08; at TrkA it was 8.31.

`CCCCOC(=O)c1cccc(CN2CC[C@H](NC(=O)c3cnc4ccc(N5C[C@@H](F)C[C@@H]5c5cc(F)ccc5SC)nn34)C2)c1` [Example 12, Butyl 3-{[(3S)-3-{6-[(2R,4S)-4-fluoro-2-[5-fluoro-2-(methylsulfanyl)phenyl]pyrrolidin-1-yl]imidazo[1,2-b]pyridazine-3-amido}pyrrolidin-1-yl]methyl}benzoate]: the pIC50 at TrkB is 7.99; at TrkC, 7.96; on TrkA, 8.42.

For `CSc1ccc(F)cc1[C@H]1CCCN1c1ccc2ncc(C(=O)N[C@H]3CCN(Cc4ccc(F)c(O)c4)C3)n2n1` [Example 2, 6-[(2R)-2-[5-fluoro-2-(methylsulfanyl)phenyl]pyrrolidin-1-yl]-N-[(3S)-1-[(4-fluoro-3-hydroxyphenyl)methyl]pyrrolidin-3-yl]imidazo[1,2-b]pyridazine-3-carboxamide], the pIC50 was 8.48 at TrkB, 8.47 on TrkC and 8.75 at TrkA.

Turning to `CSc1cc(F)cc([C@H]2C[C@H](F)CN2c2ccn3ncc(C(=O)NC4CCN(Cc5cccc(O)c5)CC4)c3n2)c1` [Example 31, 5-[(2R,4S)-4-fluoro-2-[3-fluoro-5-(methylsulfanyl)phenyl]pyrrolidin-1-yl]-N-{1-[(3-hydroxyphenyl)methyl]piperidin-4-yl}pyrazolo[1,5-a]pyrimidine-3-carboxamide], the figures for the pIC50 at TrkB, on TrkC and at TrkA were 9.07, 8.86 and 8.86, respectively.

Take `CSc1cc(F)cc([C@H]2C[C@H](F)CN2c2ccc3ncc(C(=O)N[C@H]4COCCN(Cc5ccc(F)c(O)c5)C4)n3n2)c1` (single isomer, unassigned) [Example 25]: the pIC50 is 7.94 at TrkB, 8.06 on TrkC and 8.21 on TrkA.

Consider `CCCCOC(=O)c1cccc(CN2CC[C@H](NC(=O)c3cnc4ccc(N5C[C@@H](F)C[C@@H]5c5cc(F)cc(SC)c5)nn34)C2)c1` [Example 30, Butyl 3-{[(3S)-3-{6-[(2R,4S)-4-fluoro-2-[3-fluoro-5-(methylsulfanyl)phenyl]pyrrolidin-1-yl]imidazo[1,2-b]pyridazine-3-amido}pyrrolidin-1-yl]methyl}benzoate], for which the figures for the pIC50 at TrkB, on TrkC and at TrkA were 7.83, 7.65 and 7.65, respectively.

As to `CSc1cc(F)cc([C@H]2C[C@H](F)CN2c2ccc3ncc(C(=O)NC4CCN(Cc5cccc(O)c5)CC4)n3n2)c1` [Example 22, 6-[(2R,4S)-4-fluoro-2-[3-fluoro-5-(methylsulfanyl)phenyl]pyrrolidin-1-yl]-N-{1-[(3-hydroxyphenyl)methyl]piperidin-4-yl}imidazo[1,2-b]pyridazine-3-carboxamide], the figures for the pIC50 at TrkB, at TrkC and on TrkA were 8.70, 8.67 and 8.85, respectively.

Regarding `CSc1ccc(F)cc1[C@H]1C[C@H](F)CN1c1ccc2ncc(C(=O)NC3CN(Cc4cccc(O)c4)C3)n2n1` [Example 5, 6-[(2R,4S)-4-fluoro-2-[5-fluoro-2-(methylsulfanyl)phenyl]pyrrolidin-1-yl]-N-{1-[(3-hydroxyphenyl)methyl]azetidin-3-yl}imidazo[1,2-b]pyridazine-3-carboxamide], the pIC50 is 8.92 on TrkB, 8.68 on TrkC and 8.72 at TrkA.

For the molecule `COC(=O)c1cccc(CN2CC[C@H](NC(=O)c3cnc4ccc(N5C[C@@H](F)C[C@@H]5c5cc(F)ccc5SC)nn34)C2)c1` [Example 10, Methyl 3-{[(3S)-3-{6-[(2R,4S)-4-fluoro-2-[5-fluoro-2-(methylsulfanyl)phenyl]pyrrolidin-1-yl]imidazo[1,2-b]pyridazine-3-amido}pyrrolidin-1-yl]methyl}benzoate], the pIC50 was 8.67 on TrkB, 8.67 at TrkC and 8.93 on TrkA.

With `CSc1cc(F)cc([C@H]2C[C@H](F)CN2c2ccc3ncc(C(=O)N[C@H]4CCN(Cc5cccc(C(=O)O)c5)C4)n3n2)c1` [Example 29, 3-{[(3S)-3-{6-[(2R,4S)-4-fluoro-2-[3-fluoro-5-(methylsulfanyl)phenyl]pyrrolidin-1-yl]imidazo[1,2-b]pyridazine-3-amido}pyrrolidin-1-yl]methyl}benzoic Acid], the pIC50 on TrkB is 8.27; at TrkC, 8.40; on TrkA, 8.23.

On to `CSc1ccc(F)cc1[C@H]1C[C@H](F)CN1c1ccc2ncc(C(=O)NC3CCN(Cc4cccc(O)c4)CC3)n2n1` [Example 3, 6-[(2R,4S)-4-fluoro-2-[5-fluoro-2-(methylsulfanyl)phenyl]pyrrolidin-1-yl]-N-{1-[(3-hydroxyphenyl)methyl]piperidin-4-yl}imidazo[1,2-b]pyridazine-3-carboxamide], for which the pIC50 at TrkB was 9.10; on TrkC, 8.92; on TrkA it was 9.04.

On to `CSc1ccc(F)cc1[C@H]1C[C@H](F)CN1c1ccc2ncc(C(=O)NC3CN(Cc4ccc(F)c(O)c4)C3)n2n1` [Example 4, 6-[(2R,4S)-4-fluoro-2-[5-fluoro-2-(methylsulfanyl)phenyl]pyrrolidin-1-yl]-N-{1-[(4-fluoro-3-hydroxyphenyl)methyl]azetidin-3-yl}imidazo[1,2-b]pyridazine-3-carboxamide], for which the pIC50 is 8.98 on TrkB, 8.71 on TrkC and 8.76 at TrkA.

For the molecule `CSc1cc(F)cc([C@H]2C[C@H](F)CN2c2ccc3ncc(C(=O)NC4CN(Cc5cccc(O)c5)C4)n3n2)c1` [Example 20, 6-[(2R,4S)-4-fluoro-2-[3-fluoro-5-(methylsulfanyl)phenyl]pyrrolidin-1-yl]-N-{1-[(3-hydroxyphenyl)methyl]azetidin-3-yl}imidazo[1,2-b]pyridazine-3-carboxamide], the pIC50 on TrkB was 8.42; on TrkC, 8.43; on TrkA it was 8.57.

Consider `CCOC(=O)c1cccc(CN2CC[C@H](NC(=O)c3cnc4ccc(N5C[C@@H](F)C[C@@H]5c5cc(F)ccc5SC)nn34)C2)c1` [Example 13, Ethyl 3-{[(3S)-3-{6-[(2R,4S)-4-fluoro-2-[5-fluoro-2-(methylsulfanyl)phenyl]pyrrolidin-1-yl]imidazo[1,2-b]pyridazine-3-amido}pyrrolidin-1-yl]methyl}benzoate], for which the pIC50 at TrkB is 8.60; at TrkC, 8.70; on TrkA it was 8.77.

For `CCCCC(=O)Oc1cccc(CN2CC[C@H](NC(=O)c3cnc4ccc(N5C[C@@H](F)C[C@@H]5c5cc(F)ccc5SC)nn34)C2)c1` [Example 9, 3-{[(3S)-3-{6-[(2R,4S)-4-fluoro-2-[5-fluoro-2-(methylsulfanyl)phenyl]pyrrolidin-1-yl]imidazo[1,2-b]pyridazine-3-amido}pyrrolidin-1-yl]methyl}phenyl Pentanoate], the pIC50 at TrkB is 8.06; at TrkC, 8.07; on TrkA, 8.42.
